Data from patent US7605184B2, “Method of anesthesia” (priority 2008, dated 2009).
Read-outs that look alike come from different tables or passages of the source.

Legend:
[1] = system: murine models; settings: cited from earlier work
[2] = degradation by wet (normal) carbon dioxide absorbents at 40° C., gas chromatography; assay type: physicochemical; settings: for % Degraded per Minute: 100 mL anesthetic
Protocol: Nine milligrams of the compound of formula (1) were placed in each of three 600 ml flasks containing 100 g of soda lime and maintained at 40° C. The 40° C. temperature is chosen to mimic that generated by the exothermic reaction of carbon dioxide with absorbent in a system wherein all gases are rebreathed. Soda lime contains sodium hydroxide as well as approximately 80% calcium hydroxide. A control flask contained the compound of formula (1) but no soda lime. Samples were taken at various timepoints and analyzed by gas chromatography using a flame ionization detector. […] It will be noted that the Y-axis is on a log scale so that the depletion is quite dramatic.
The procedure was identical to that of Example 1 except that an absorbent containing only calcium hydroxide as the base was used. This absorbent is marketed under the trademark Amsorb®.
The dramatic decrease in degradation with substitution of Amsorb® for soda lime applies to other absorbents that are composed of calcium hydroxide but contain minimal or no monovalent bases, LoFloSorb® and Drägersorb® Free. The general procedure of Example 1 was repeated using these two commercially available absorbents. […] All studies were conducted at 40° C. In all cases, the absorbents were “wet” (contained approximately 15% water by weight). The data in the table were obtained using the protocol set forth above wherein 100 g of absorbent was placed in a 600 mL flask, and 100 mL of anesthetic at the indicated concentration was inserted. Each study was done in triplicate. […] Values for % degraded per minute are given as the average and standard deviation (SD).

[3] = system: mice; experiment: loss of righting reflex in mice; assay type: in vivo; settings: four mice, closed system with Amsorb, rectal temperature 30° C. (hypothermic)
Excerpt: (§1) Clearly another significant property of an anesthetic is its ability to effect anesthesia in the first place. […] The minimum alveolar concentration of anesthetic at which 50% of subjects move in response to a noxious stimulus is designated “MAC.” In the case of 30-60 year old adult humans, the MAC values are 0.06 atm (i.e., 6%) for desflurane, 0.0115 atm (1.15%) for isoflurane and 0.0185 atm (1.85%) for sevoflurane). An alternative measurement similar to MAC that is based on the righting reflex in mice gave a value for the compound of formula (1) of 0.05 atm (5%). The value obtained in this alternative assay approximates but is usually a bit less than MAC.
In a closed system employing Amsorb® as the absorbent, four mice were anesthetized using the compound of formula (1). The righting reflex was lost at 3.22±0.54% of formula (1). The rectal temperature of the mice at the end of this experiment was 30° C. which is hypothermic for mice. Hypothermia decreases anesthetic requirement (Eger, E. I. II and Johnson, B. H.; Anesth Analg (1987) 66:974-976), and thus this experiment probably underestimated the concentration producing the loss of righting reflex.

[4] = system: mice and rats; experiment: recovery, CNS irritation and survival after anesthesia in mice and rats; assay type: in vivo
[5] = blood/gas partition coefficient; assay type: physicochemical
Excerpt: One highly desirable property of an inhaled anesthetic is that it permits rapid recovery once the administration of the anesthetic is halted. Typically, during surgical procedures, the subject is continuously administered the anesthetic, and it is helpful if the subject can recover as quickly as possible as soon as administration is stopped. The length of time required for such recovery is a function of the solubility of the anesthetic in the blood, which mimics solubility in the brain. Thus, anesthetics with very low blood/gas partition coefficients are highly desirable. The blood/gas partition coefficient for desflurane is 0.45; for sevoflurane is 0.65 and for isoflurane is even higher. The blood/gas partition coefficient for the compound of formula (1) is only 0.21, making it highly advantageous as permitting more rapid recovery than any of the currently used anesthetics.

[6] = degradation by desiccated (dry) carbon dioxide absorbents at 40° C.; assay type: physicochemical; settings: for % Degr Per min: 40° C.
Protocol: Drying was accomplished by placing wet absorbent in a large flask receiving 1-1.5 L/min of oxygen (dry; no water vapor) for 4 days. The flask rested in an incubator at 50° C. The absorbent contained in the flask was weighed repeatedly (to essentially constant weight loss).
As above, all studies were conducted at 40° C. Desiccated (dry) absorbent (grams indicated) was placed in a 600 mL flask, and 100 or 200 mL of anesthetic at the indicated concentration was inserted. […] Values for % degraded per minute are given as the average and standard deviation (SD).

[7] = system: rats; experiment: MAC in rats; assay type: in vivo; settings: five rats, 37° C. (normothermic)
Excerpt: as §1
In an additional experiment, conducted at 37° C. which is normothermic, five rats were anesthetized using the compound of formula (1) and the MAC value found was 8.34±0.84%.

[8] = currently used anesthetics; cited from earlier work
[9] = Strum et al. 1987; cited from earlier work
[10] = dry Amsorb 100 g, 100 mL injected
[11] = dry Drägersorb Free 25 g, 100 mL injected
[12] = dry LoFloSorb 25 g, 100 mL injected
[13] = dry LoFloSorb 50 g, 200 mL injected

## FC(F)OC(C(F)(F)F)C(F)(F)F [Formula (1), CHF2—O—CH(CF3)2]
[1]; Speers et al., J. Med. Chem. 1971
  anesthetic quality: good anesthetic
[1]; murine models, Speers et al. 1971
  side effects: undesirable side effects
[2]; 9 mg, 100 g soda lime, 600 ml flask, after 30 min
  degradation in flasks containing soda lime (FIG. 2): essentially complete degradation
[2]; 100 g Amsorb (calcium hydroxide only), 30 min interval
  percentage of compound in the flask (FIG. 3): remained constant
[2]; wet Amsorb 100 g
  % Degraded per Minute: −0.05%
[2]; wet Drägersorb Free 100 g
  % Degraded per Minute: 0.102%
[2]; wet LoFloSorb 100 g
  % Degraded per Minute: 0.2%
[2]; wet Soda Lime 100 g
  % Degraded per Minute: 25.0%
[3]
  concentration at which the righting reflex was lost: 3.22±0.54%
[4]; 24 hours after anesthesia, mice and rats
  survival: All survived for 24 hours in apparent good health
[4]; mice and rats
  time to awake after administration of the anesthetic was stopped: 2 to 3 min
[4]; mice and rats anesthetized
  irritation of the central nervous system: In neither of these cases was there irritation of the central nervous system
[5]
  blood/gas partition coefficient: 0.21
[6]; dry Amsorb 20 g, 100 mL injected
  % Degr Per min: 0.7%
[6]; [10]
  % Degr Per min: 2.7%
[6]; dry Amsorb, three flasks, repeated additions
  rate of degradation on repeated addition of anesthetic (FIG. 4): progressively decreased
[6]; [11]
  % Degr Per min: 0.28%
[6]; [12]
  % Degr Per min: 55.0%
[6]; [13]
  % Degr Per min: 40.7%
[7]
  MAC value: 8.34±0.84%

## FC(F)OC(F)C(F)(F)F (centres unmarked) [Desflurane, desflurane, reference compound]
[8]
  blood/gas partition coefficient: 0.45
[6]; dry Amsorb 50 g, 100 mL injected
  % Degr Per min: −0.1%
[6]; [13]
  % Degr Per min: 0.5%

## FCOC(C(F)(F)F)C(F)(F)F [Sevoflurane, sevoflurane, reference compound]
[9]
  degradation in soda lime: 13 % per hour
[2]; wet Drägersorb Free 100 g
  % Degraded per Minute: −0.058%
[8]
  blood/gas partition coefficient: 0.65
[6]; [10]
  % Degr Per min: 5.01%
[6]; [11]
  % Degr Per min: 0.52%
[6]; [12]
  % Degr Per min: 38.5%
